Laboratory results published in patent US20130197090A1, “POSTURAL STABILITY AND INCIDENT FUNCTIONS IN PATIENTS” (Chelsea Therapeutics, Inc., priority 2012, published 2013).

Assays:
[1] = system: PD patients; test: Patient-reported falls, double-blind placebo-controlled study of Example 1; type: in vivo, human
Procedure: A multi-center, double-blind, randomized, parallel-group, placebo-controlled study was carried out to assess the clinical effect of droxidopa over the course of 10 weeks for reducing falls in PD patients. The study included a two week double-blind dose-titration period followed by an eight week double-blind treatment period. A screening period (up to 14 days) was used to determine patient eligibility. Throughout the study, visit specific assessments were conducted three hours (an acceptable range was two to five hours) following the patient's first daily dose of droxidopa. Patients who successfully passed all screening assessments continued to the baseline measurements. At the end of the baseline visit, eligible patients were randomized to treatment with either droxidopa or placebo (randomization was double-blind, 1:1). Patients entered a double-blind titration phase at 100 mg TID of droxidopa or matching placebo. Treatment was escalated in 100 mg TID increments to a maximum of 600 mg TID. Upon completion of the dose titration phase, patients returned for a study visit after 8 weeks of double-blind treatment at their titrated dose. The study included 27 placebo-treated patients and 24 droxidopa-treated patients. During the study, the placebo-treated patients reported a total of 197 falls compared with 79 falls reported by the droxidopa-treated patients. […] Standardizing the above data to the number of falls per patient per week, patients randomized to the placebo treatment experienced an average of 0.93 falls per patient per week. Patients randomized to the droxidopa treatment experienced an average of 0.39 falls per patient per week. This represents an approximate 60% reduction in the number of falls reported by droxidopa-treated patients compared with placebo-treated patients. […] In the study, it was evident that a number of patients in each group was not normally distributed—i.e., a few patients in each group experienced many more falls than the remaining patients in each respective group. A sensitivity analysis was performed to assess the robustness of the treatment effect in light of this disparity in falls within each group. The beneficial treatment effect favoring droxidopa was evident even when the top two patients or the top five patients who experienced the highest number of falls in each treatment group were removed from the analysis. See FIG. 4 and FIG. 5, respectively. When the top two patients in each treatment group were excluded, patients randomized to the placebo group experienced an average of 0.54 falls per patient per week compared with 0.16 falls per patient per week in patients randomized to the droxidopa group. Similarly, when the top five patients in each treatment group were excluded, patients randomized to the placebo group experienced an average of 0.20 falls per patient per week compared with 0.10 falls per patient per week in patients randomized to the droxidopa group.

[2] = system: PD patients; test: Hoehn and Yahr rating scale score, study of Example 1; type: in vivo, human; conditions: for Hoehn and Yahr, Baseline: before treatment
Procedure: (§1) A multi-center, double-blind, randomized, parallel-group, placebo-controlled study was carried out to assess the clinical effect of droxidopa over the course of 10 weeks for reducing falls in PD patients. The study included a two week double-blind dose-titration period followed by an eight week double-blind treatment period. A screening period (up to 14 days) was used to determine patient eligibility. Throughout the study, visit specific assessments were conducted three hours (an acceptable range was two to five hours) following the patient's first daily dose of droxidopa. Patients who successfully passed all screening assessments continued to the baseline measurements. At the end of the baseline visit, eligible patients were randomized to treatment with either droxidopa or placebo (randomization was double-blind, 1:1). Patients entered a double-blind titration phase at 100 mg TID of droxidopa or matching placebo. Treatment was escalated in 100 mg TID increments to a maximum of 600 mg TID. Upon completion of the dose titration phase, patients returned for a study visit after 8 weeks of double-blind treatment at their titrated dose. The study included 27 placebo-treated patients and 24 droxidopa-treated patients.
(§2) Patients in the study were evaluated using the Hoehn and Yahr rating scale and the Movement Disorder Society-sponsored revised version of the UPDRS to evaluate the effect of treatment as evidenced by these two scales. A baseline score for each patient using each test was established prior to treatment with droxidopa or the placebo, and a post-treatment score for each test was established at the end of the study.
Since the Hoehn and Yahr rating scale is heavily weighted towards postural instability as the primary index of disease severity, it is believed that the Hoehn and Yahr score serves as a useful measure of the effect of treatment on NOH in a PD patient population. At the end of this study, droxidopa-treated patients experienced, on average, an improvement from baseline (i.e., a reduction in the score) in their Hoehn and Yahr rating scale score (change: −0.4 points) while placebo-treated patients experienced no change from baseline in their Hoehn and Yahr rating scale score, resulting in a notable treatment difference of −0.4 units favoring droxidopa. Based on an analysis of Hoehn and Yahr rating scale scores in individual patients, a higher proportion of droxidopa-treated patients experienced an improvement in their Hoehn and Yahr rating scale score at the end of the study (10 of 24 patients; 42%) compared with placebo-treated patients (5 of 27 patients; 19%). Conversely, a lower proportion of droxidopa-treated patients experienced a worsening in their Hoehn and Yahr rating scale score at the end of the study (3 of 24 patients; 13%) compared with placebo-treated patients (10 of 27 patients; 37%).

[3] = system: PD patients; test: MDS-UPDRS score, study of Example 1; type: in vivo, human; conditions: for MDS-UPDRS, Baseline: before treatment
Procedure: as §1, §2
The UPDRS likewise is a useful test for evaluating improvements in symptoms that can be a cause of falls in PD patients since this scale is used to assess the severity of motor and non-motor symptoms in PD patients. In the present study, droxidopa-treated patients experienced a 15.8 point improvement (i.e., decrease) from baseline compared with an 11.4 point improvement in placebo-treated patients. […] The 4.4 point treatment difference favoring droxidopa in the total UPDRS score reflects pronounced improvement in the motor features of PD and mirrors the improvements observed on the Hoehn and Yahr rating scale score.

[4] = system: PD patients; test: Patient falls, double-blind placebo-controlled study of Example 2; type: in vivo, human
Procedure: A multi-center, double-blind, randomized, placebo-controlled study was carried out to assess the clinical effect of droxidopa for reducing falls in PD patients. The study included a two week double-blind dose-titration period followed by an eight week double-blind treatment period. A screening period (up to 14 days) was used to determine patient eligibility. The patients were then randomized into a treatment group and a placebo group. Patients entered a double-blind titration phase at 100 mg TID of droxidopa or matching placebo. Treatment was escalated in 100 mg TID increments to a maximum of 600 mg TID. Upon completion of the dose titration phase, patients returned for study visits after 1, 2, 4, and 8 weeks of double-blind treatment at their titrated dose. The study included 78 placebo-treated patients and 69 droxidopa-treated patients. […] This is illustrated in FIG. 9.

[5] = system: PD patients suffering from "freezing of gait"; conditions: Narabayashi et al. 1981; cited from earlier work
[6] = molecular target: T1, MAO-A (Homo sapiens, UniProt P21397); conditions: cited from earlier work
T1 sequence (P21397 1-527): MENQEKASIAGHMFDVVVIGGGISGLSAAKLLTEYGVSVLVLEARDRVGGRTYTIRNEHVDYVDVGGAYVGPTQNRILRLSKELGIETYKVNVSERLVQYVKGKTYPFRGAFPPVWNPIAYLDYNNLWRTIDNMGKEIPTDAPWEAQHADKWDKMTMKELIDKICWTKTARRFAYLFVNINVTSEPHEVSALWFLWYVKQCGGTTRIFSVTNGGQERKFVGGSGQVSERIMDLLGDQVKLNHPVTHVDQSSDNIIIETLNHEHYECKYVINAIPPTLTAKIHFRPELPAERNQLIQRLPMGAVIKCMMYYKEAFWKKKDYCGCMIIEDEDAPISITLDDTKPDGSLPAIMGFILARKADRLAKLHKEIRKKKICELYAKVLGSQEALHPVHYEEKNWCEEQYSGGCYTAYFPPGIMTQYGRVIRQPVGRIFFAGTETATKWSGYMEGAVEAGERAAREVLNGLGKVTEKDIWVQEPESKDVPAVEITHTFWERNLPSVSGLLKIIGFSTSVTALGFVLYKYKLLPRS

[7] = patients with recurrent falls, versus placebo

NC(C(=O)O)C(O)c1ccc(O)c(O)c1 (stereo not drawn) [droxidopa, threo-3-(3,4-dihydroxyphenyl) serine]
reduction in the number of falls compared with placebo-treated patients [1]: ~60% | total number of falls reported during the study ([1]; 10 weeks, 24 droxidopa-treated patients, titrated 100-600 mg TID, placebo 197): 79 falls | treatment effect on total number of patient falls ([1]; data from the first 10 days of the study removed): beneficial treatment effect favoring droxidopa on the total number of patient falls remained evident | average falls per patient per week ([1]; full analysis set, placebo 0.93): 0.39 falls per patient per week | patients who experienced recurrent falls ([1]; of 24 droxidopa-treated patients, placebo 12 of 27): nine | average falls per patient per week ([1]; top five patients with highest number of falls in each group excluded, placebo 0.20): 0.10 falls per patient per week | average falls per patient per week ([1]; top two patients with highest number of falls in each group excluded, placebo 0.54): 0.16 falls per patient per week | cumulative number of patient-recorded falls over time ([1]; versus placebo): relative increase in the number of falls in the placebo treatment group over time was consistently larger compared with the relative increase over time in the droxidopa treatment group | Hoehn and Yahr, End of Study ([2]; Non-recurrent Fallers (n = 15)): 1.4 | Hoehn and Yahr, Baseline ([2]; Non-recurrent Fallers (n = 15)): 1.8 | Hoehn and Yahr, End of Study ([2]; Recurrent Fallers (n = 9)): 1.7 | Hoehn and Yahr, Baseline ([2]; Recurrent Fallers (n = 9)): 1.9 | Change in Hoehn and Yahr Rating Scale Score: Improved, % ([2]; end of study, N = 24): 42% | Change in Hoehn and Yahr Rating Scale Score: No Change, % ([2]; end of study, N = 24): 46% | Change in Hoehn and Yahr Rating Scale Score: Worsened, % ([2]; end of study, N = 24): 13% | change from baseline in Hoehn and Yahr rating scale score ([2]; end of study, all droxidopa-treated patients, average, placebo no change): −0.4 points | treatment difference in Hoehn and Yahr rating scale score favoring droxidopa ([2]; end of study, versus placebo): −0.4 units | improvement in Hoehn and Yahr score [2, 7]: marked improvement | MDS-UPDRS, End of Study ([3]; Non-recurrent Fallers (n = 15)): 58.1 | MDS-UPDRS, Baseline ([3]; Non-recurrent Fallers (n = 15)): 74.3 | MDS-UPDRS, End of Study ([3]; Recurrent Fallers (n = 9)): 77.7 | MDS-UPDRS, Baseline ([3]; Recurrent Fallers (n = 9)): 89.1 | improvement (decrease) from baseline in UPDRS score ([3]; end of study, all droxidopa-treated patients, placebo 11.4): 15.8 point | improvement in UPDRS score [3, 7]: marked improvement | each of the four components of the UPDRS score ([3]; versus placebo): showed benefits for droxidopa compared with placebo | treatment difference favoring droxidopa in the total UPDRS score ([3]; versus placebo): 4.4 point | rate of falls per patient per week ([4]; 69 droxidopa-treated, 78 placebo-treated patients, titrated 100-600 mg TID): visibly less than in the placebo treatment group | treatment effect on falls, sensitivity analysis ([4]; top two, top five and top ten patients with highest number of falls in each group removed): beneficial treatment effect favoring droxidopa was again evident | effect on freezing of gait [5]: a beneficial effect was reported

O=C(NCCN1CCOCC1)c1ccc(Cl)cc1 [moclobemide]
selectivity for MAO-A over MAO-B [6]: approximately three times more selective for MAO-A than MAO-B
